{"source": "patent US20090202572A1", "about": "“COMPOSITIONS AND METHODS FOR MODULATING BONE MASS” (priority 2004, published 2009)", "molecules": {"B1": {"name": "Parathyroid hormone (peptide, UniProt P01270 32-115, looked up)", "Parathyroid hormone": "SVSEIQLMHNLGKHLNSMERVEWLRKKLQDVHNFVALGAPLAPRDAGSQRPRKKEDNVLVESHEKSLGEADKADVNVLTKAKSQ", "modifications": "Parathyroid hormone", "notes": "Parathyroid hormone (PTH)"}}, "key": {"WT osteoblasts": {"test_system": "WT osteoblasts", "assay": "cAMP production in osteoblasts", "assay_type": "cell-based, mouse", "description": "β2AR is the only post-synaptic β-AR whose expression can be detected in osteoblasts. […] Thus, we used Adrb2−/− mice to study how sympathetic signaling affects bone remodeling in adult animals."}, "osteoblasts and BMMs": {"test_system": "osteoblasts and BMMs", "assay": "Co-culture of osteoblasts and BMMs with 1,25-(OH)2 vitamin D3 (TRAP+ osteoclast count)", "assay_type": "cell-based, mouse", "conditions": "for number of TRAP-positive multinucleated osteoclasts in co-culture: WT osteoblasts and WT BMMs, ISO 10 uM, 4 days", "description": "(§1) BBMs were differentiated with the indicated amounts of RANK-L and MCS-F and the number of TRAP+ osteoclasts was counted after 5 days. […] BBMs were differentiated in presence of MCS-F and RANK-L with or without 10 uM ISO and the number of TRAP+ osteoclasts was counted after 5 days. […] BBMs were differentiated in presence of MCS-F and RANK-L and were treated by ISO (10 μM), dobutamine (Dobu, 10 μM) or calcitonin (100 pg/ml). Intracellular cAMP production was measured by EIA. […] Osteoblasts and BMMs were co-cultured with 1,25(OH)2-vitamin D (10^-8 M) with or without ISO (10 uM) and the number of TRAP+ osteoclasts was counted after 4 days. […] WT and Adrb2 primary osteoblasts were treated for the indicated time with ISO (10 μM) and gene expression was quantified by real-time RT-PCR. (g) Schematic diagram of the structure of Rank-1 and IL6 promoters. Boxes represent CREB-like consensus binding sites.\nTo that end we performed co-culture of BMMs and osteoblasts prepared from mouse calvariae. In this assay treatment of osteoblasts with 1,25-(OH)2 vitamin D3 leads to the differentiation of BMMs into TRAP-positive multinucleated osteoclasts."}, "WT mature osteoclasts": {"test_system": "WT mature osteoclasts", "assay": "Osteoclast function: resorption pits on dentine slices", "assay_type": "cell-based, mouse", "source_text": "WT or Adrb2 BBMs were differentiated for 2 days with MCS-F and RANK-L, trypsinized and platted on dentine slices for 2 days. Resorption pits were stained with hematoxylin and resorption pit area was quantified (data not shown). To test whether sympathetic signaling could affect osteoclast function, we treated TRAP-positive multinucleated osteoclasts with isoproterenol."}, "WT mice [1]": {"test_system": "WT mice", "assay": "Gene expression in bones of WT mice treated for 3 weeks", "assay_type": "in vivo, mouse", "conditions": "3 weeks treatment", "description": "To determine the biological relevance of these findings we performed two experiments. First, we treated WT mice with isoproterenol for 3 weeks and analyzed bone resorption parameters and bone expression of Rank-l and IL6 at the end of this treatment period. […] Second, to determine the role that this physiological regulation may have in pathological conditions such as bone loss developing after menopause, we ovariectomized WT and Adrb2−l− mice at one month of age and analyzed them 3 months later. […] The increase in bone formation that persisted together with the absence of any increase in bone resorption explained why Adrb2−/− mice maintained a higher bone mass than WT mice."}, "mature osteoclasts": {"test_system": "mature osteoclasts", "assay": "cAMP production in mature osteoclasts (EIA)", "assay_type": "cell-based, mouse", "conditions": "ISO 10 μM, calcitonin 100 pg/ml", "description": "(a) In vitro osteoclastogenesis is not affected by Adrb2 deficiency. BBMs were differentiated with the indicated amounts of RANK-L and MCS-F and the number of TRAP+ osteoclasts was counted after 5 days. (b) In vitro osteoclast differentiation is not affected by Isoproterenol (ISO) treatment. BBMs were differentiated in presence of MCS-F and RANK-L with or without 10 uM ISO and the number of TRAP+ osteoclasts was counted after 5 days. […] BBMs were differentiated in presence of MCS-F and RANK-L and were treated by ISO (10 μM), dobutamine (Dobu, 10 μM) or calcitonin (100 pg/ml). Intracellular cAMP production was measured by EIA. (d) ISO stimulated osteoclast differentiation via stimulation of b2AR in osteoblasts. Osteoblasts and BMMs were co-cultured with 1,25(OH)2-vitamin D (10^-8 M) with or without ISO (10 uM) and the number of TRAP+ osteoclasts was counted after 4 days. (e) ISO induced Rank-l expression in osteoblasts, via b2AR. (f) ISO induced IL6 expression in osteoblasts, via b2AR. WT and Adrb2 primary osteoblasts were treated for the indicated time with ISO (10 μM) and gene expression was quantified by real-time RT-PCR. (g) Schematic diagram of the structure of Rank-1 and IL6 promoters. Boxes represent CREB-like consensus binding sites.\nTo test whether sympathetic signaling could affect osteoclast function, we treated TRAP-positive multinucleated osteoclasts with isoproterenol."}, "primary osteoblasts": {"test_system": "primary osteoblasts", "assay": "Gene expression in primary osteoblasts by real-time RT-PCR", "assay_type": "cell-based, mouse", "description": "as §1\nTo test this hypothesis we analyzed the expression in osteoblasts of genes encoding known regulators of osteoclast differentiation following treatment with isoproterenol."}, "[2]": {"test_system": "bone marrow macrophages (BMMs)", "assay": "In vitro osteoclast differentiation of BMMs with RANK-L and M-CSF (TRAP+ count)", "assay_type": "cell-based, mouse", "conditions": "10 uM ISO, counted after 5 days", "description": "as §1"}, "WT mice [3]": {"test_system": "WT mice", "conditions": "stated as known property; cited from earlier work"}, "WT mice [4]": {"test_system": "WT mice", "assay": "Bone remodeling parameters in treated WT mice", "assay_type": "in vivo, mouse", "description": "(a) von Kossa staining of vertebral sections. Six month old Adrb2−/− and Adrb2+/− mice display an increase in bone volume over tissue volume (BV/TV) compared to wt littermates. (b) Bone formation parameters: bone formation rate (BFR), osteoblast surface over bone surface (ObS/BS) and osteoblast number over bone perimeter (ObNb/BPm) are increased in Adrb2−/− and Adrb2+/− mice. (c) Bone resorption parameters: osteoclast surface over bone surface (OcS/BS), osteoclast number over bone perimeter (OcNb/BPm) and urinary elimination of deoxypiridinoline (dpd) are decreased in Adrb2−/− and Adrb2+/− mice.\nFirst, we analyzed mice lacking only one copy of Adrb2 and compared them to WT mice treated with propranolol, a β-adrenergic receptor antagonist whose administration enhances bone formation in mice. Expression of Adrb2 was first assayed in WT, Adrb2−/− and Adrb2+/− osteoblasts. […] This was due to both an increase in bone formation and a decrease in bone resorption (FIGS. 1b and 1c). To our knowledge, this high bone mass is the only phenotypic consequence reported so far in the case of haploinsufficiency at the Adrb2 locus."}}, "note": "Entries after “also recorded” stand apart in the source; their conditions may differ. Like-named read-outs stand apart in the source and are kept apart here."}
{"molecule": "CC(C)(C)NCC(O)c1ccc(O)c(CO)c1", "note": "(stereo not drawn) [salbutamol]", "values": [{"measurement": "cAMP production in osteoblasts", "setting": "WT osteoblasts", "result": "stimulated"}]}
{"molecule": "CC(CCc1ccc(O)cc1)NCCc1ccc(O)c(O)c1", "note": "(stereo not drawn) [dobutamol]", "values": [{"measurement": "cAMP production in osteoblasts", "setting": "WT osteoblasts", "result": "did not and not"}]}
{"molecule": "CC(C)NCC(O)c1ccc(O)c(O)c1", "note": "(stereo not drawn) [isoproterenol]", "values": [{"measurement": "cAMP production in osteoblasts", "setting": "WT osteoblasts", "result": "enhances"}, {"measurement": "cAMP production in osteoblasts", "setting": "WT osteoblasts; listed as Isoproterenol", "result": "stimulate"}, {"measurement": "osteoclast differentiation in co-culture", "setting": "osteoblasts and BMMs; Adrb2−/− osteoblasts with WT BMMs", "result": "could not enhance"}, {"measurement": "number of TRAP-positive multinucleated osteoclasts in co-culture", "setting": "osteoblasts and BMMs", "result": "significantly increased"}, {"measurement": "number of TRAP-positive multinucleated osteoclasts in co-culture", "setting": "osteoblasts and BMMs; listed as ISO", "result": "stimulated"}, {"measurement": "osteoclast differentiation in co-culture", "setting": "osteoblasts and BMMs; WT osteoblasts with Adrb2−/− BMMs", "result": "increased"}, {"measurement": "osteoclast function (pit formation / resorption pit area on dentine slices)", "setting": "WT mature osteoclasts", "result": "did not affect"}, {"measurement": "osteoclast function (pit formation / resorption pit area on dentine slices)", "setting": "WT mature osteoclasts; listed as ISO", "result": "normal"}, {"measurement": "IL6 expression in bones", "setting": "WT mice [1]", "result": "increased"}, {"measurement": "OPG expression in bones", "setting": "WT mice [1]", "result": "unaffected"}, {"measurement": "Rank-l expression in bones", "setting": "WT mice [1]", "result": "increased"}, {"measurement": "intracellular cAMP production in osteoclasts", "setting": "mature osteoclasts", "result": "did not induce any significant"}, {"measurement": "intracellular cAMP production in osteoclasts", "setting": "mature osteoclasts; listed as ISO", "result": "does not induce"}, {"measurement": "induction of Rank-l expression", "setting": "primary osteoblasts; Adrb2−/− osteoblasts", "result": "not detected"}, {"measurement": "IL6 expression in osteoblasts", "setting": "primary osteoblasts; ISO 10 μM", "result": "increased"}, {"measurement": "IL6 expression in osteoblasts", "setting": "primary osteoblasts; ISO 10 μM, listed as ISO", "result": "induced"}, {"measurement": "Rank-l expression in osteoblasts (in words)", "setting": "primary osteoblasts; WT osteoblasts, ISO 10 μM", "result": "induced"}, {"measurement": "increase of Rank-l expression", "setting": "primary osteoblasts; WT osteoblasts, ISO 10 μM", "result": "~20", "unit": "fold"}, {"measurement": "expression of IL2", "setting": "primary osteoblasts; osteoblasts, data not shown", "result": "did not affect"}, {"measurement": "expression of ILI α", "setting": "primary osteoblasts; osteoblasts, data not shown", "result": "did not affect"}, {"measurement": "expression of M-CSF", "setting": "primary osteoblasts; osteoblasts, data not shown", "result": "did not affect"}, {"measurement": "expression of osteoprotegerin (Opg)", "setting": "primary osteoblasts; osteoblasts, data not shown", "result": "did not affect"}, {"measurement": "number of TRAP-positive multinucleated osteoclasts", "setting": "[2]", "result": "did not affect"}, {"measurement": "number of TRAP-positive multinucleated osteoclasts", "setting": "[2]; listed as Isoproterenol", "result": "not affected"}]}
{"molecule": "CC(C)NCC(O)COc1cccc2ccccc12", "note": "(stereo not drawn) [propranolol]", "values": [{"measurement": "bone formation", "setting": "WT mice [3]", "result": "enhances"}, {"measurement": "bone resorption parameters (OcS/BS, OcNb/BPm, urinary dpd)", "setting": "WT mice [4]", "result": "do not display a significant decrease; also recorded: did not affect"}]}
{"molecule": "calcitonin", "values": [{"measurement": "intracellular cAMP production in osteoclasts", "setting": "mature osteoclasts", "result": "robust stimulation"}]}
{"molecule": "B1", "values": [{"measurement": "cAMP production in osteoblasts", "setting": "WT osteoblasts", "result": "stimulate"}]}
